Structures are written as SMILES. Structures can show the parent of a compound that is named as a salt. A value given as a limit tells only on which side of the number the result lay.

Test [1] deals with T1, HCV polymerase (NS5B) type 1b (Hepatitis C virus genotype 1b, UniProt P26663).
T1 construct: a region encoding NS5B (J Virol 1991 March, 65(3), 1105-13, 544 amino acids after deletion of 47 amino acids on the C-terminal); 6xHis (C); made in house; host or cells: Escherichia coli
The experiment in a line: Assay of enzyme (HCV polymerase) inhibitory activity, type 1b enzyme. Type of test: biochemical, HCV BK strain (type 1b). Summed up: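 Rxn: NS5B 1b (BK, ΔC47, His6) 0.5 μg/ml; substrate RNA 5 μg/ml; ATP/GTP/CTP 50 μM, UTP 2 μM + [5,6-3H]UTP; 20 mM Tris pH 7.5, 5 mM MgCl2, 50 mM NaCl, 1 mM EDTA/DTT. 25 °C, 60 min. Stop with TCA/pyrophosphate, filter, scintillation count; IC50 vs. untreated.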

For test [2], the target named is T2, HCV polymerase (NS5B) type 1a (Hepatitis C virus genotype 1a, UniProt P26664).
T2 construct: made in house; host or cells: Escherichia coli (by the 'similar method' of the 1b enzyme)
Kind of test: Assay of enzyme (HCV polymerase) inhibitory activity, type 1a enzyme. Type of test: biochemical, HCV type 1a (cloned from the blood of patients). In a few lines: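 NS5B Δ47 C-term His6 (type 1a, 1.5 μg/ml); substrate RNA 5 μg/ml; ATP/GTP/CTP 50 μM, UTP 2 μM + [5,6-3H]UTP; Tris pH 7.5, MgCl2 5 mM; 25° C, 60 min. TCA/pyrophosphate stop, GF/B filter, scintillation. IC50 vs no-compound control.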

The mark [3] stands for this setting: HCV polymerase inhibitory activity (IC50), 1b, type 1b enzyme 0.5 μg/ml, 25° C., 60 min.
The mark [4] stands for this setting: HCV polymerase inhibitory activity (IC50), 1a, type 1a enzyme 1.5 μg/ml, 25° C., 60 min.
Where [5] appears, read: HCV polymerase inhibitory activity IC50, 1b, type 1b enzyme.
[6] abbreviates: HCV polymerase inhibitory activity IC50, 1a, type 1a enzyme.

In the case of `CCCc1ccc(CNC(=O)[C@H]2CN(c3nc4c(s3)CN(C)CC4)CCN2S(=O)(=O)c2ccc(OC(F)(F)F)cc2)cc1` [Example 548, (R)-4-(5-methyl-4,5,6,7-tetrahydro-thiazolo[5,4-c]pyridin-2-yl)-1-(4-trifluoromethoxy-benzenesulfonyl)-piperazine-2-carboxylic acid 4-propyl-benzylamide], the IC50 in test [1] (setting [3]) and in test [2] (setting [4]) was less than 100 nM in each case.

Consider `CC(=O)N1CCN(S(=O)(=O)c2ccc(C(C)C)cc2)[C@@H](C(=O)NCc2ccc(C(C)C)cc2)C1` [Example 137, (R)-4-acetyl-1-(4-isopropyl-benzenesulfonyl)-piperazine-2-carboxylic acid 4-isopropyl-benzylamide], for which the IC50 in test [1] (setting [3]) and in test [2] (setting [4]) was less than 100 nM each time.

Take `CCC(F)(F)c1ccc(CNC(=O)[C@H]2CN(c3cnc4nsnc4n3)CCN2S(=O)(=O)c2ccc(OC(F)(F)F)cc2)cc1` [Example 691, (R)-4-[1,2,5]thiadiazolo[3,4-b]pyrazin-5-yl-1-(4-trifluoromethoxy-benzenesulfonyl)-piperazine-2-carboxylic acid 4-(1,1-difluoro-propyl)-benzylamide]: the IC50 in test [1] (setting [5]) and in test [2] (setting [6]) was less than 100 nM each time.

As to `CC(=O)N1CCN(S(=O)(=O)c2ccc(C(C)C)cc2)C(C(=O)NCc2ccccc2Cl)C1` (centres unmarked) [Example 34, 4-acetyl-1-(4-isopropyl-benzenesulfonyl)-piperazine-2-carboxylic acid 2-chloro-benzylamide], the IC50 in test [1] (setting [3]) and in test [2] (setting [4]) was more than 1000 nM in each case.

Consider `O=C(NCc1ccc(OC(F)(F)F)cc1)[C@H]1CN(c2nn3c(C(F)(F)F)nnc3s2)CCN1S(=O)(=O)c1ccc(OC(F)(F)F)cc1` [Example 951, (R)-1-(4-trifluoromethoxy-benzenesulfonyl)-4-(3-trifluoromethyl-[1,2,4]triazolo[3,4-b][1,3,4]thiadiazol-6-yl)-piperazine-2-carboxylic acid 4-trifluoromethoxy-benzylamide], for which the IC50 in test [1] (setting [5]) and in test [2] (setting [6]) was less than 100 nM in each case.

As for `CCC(F)(F)c1ccc(CNC(=O)[C@H]2CN(C(=O)Cc3ccncc3)CCN2S(=O)(=O)c2ccc(OC(F)(F)F)cc2)cc1` [Example 508, (R)-4-(2-pyridin-4-yl-acetyl)-1-(4-trifluoromethoxy-benzenesulfonyl)-piperazine-2-carboxylic acid 4-(1,1-difluoro-propyl)-benzylamide], the IC50 in test [1] (setting [3]) and in test [2] (setting [4]) was less than 100 nM in each case.

For `CC(=O)N1CCN(S(=O)(=O)c2ccc(C(C)C)cc2)[C@@H](C(=O)NCc2ccc(Br)cc2Cl)C1` [Example 182, (R)-4-acetyl-1-(4-isopropyl-benzenesulfonyl)-piperazine-2-carboxylic acid 4-bromo-2-chloro-benzylamide], the IC50 in test [1] (setting [3]) and in test [2] (setting [4]) was 100 to 1000 nM in each case.

On to `Cc1nc(N2CCN(S(=O)(=O)c3ccc(OC(F)(F)F)cc3)[C@@H](C(=O)NCc3ccc(C(C)C)cc3)C2)sc1C(=O)NCC(=O)O` [Example 360, ({2-[(R)-3-(4-isopropyl-benzylcarbamoyl)-4-(4-trifluoromethoxy-benzenesulfonyl)-piperazin-1-yl]-4-methyl-thiazole-5-carbonyl}-amino)-acetic acid], for which the IC50 in test [1] (setting [3]) and in test [2] (setting [4]) was less than 100 nM in each case.

For the compound `CC(=O)N1CCN(S(=O)(=O)c2ccc(C(C)C)cc2)C(C(=O)NCc2ccc(C3CCCC3)cc2)C1` (centres unmarked) [Example 139, 4-acetyl-1-(4-isopropyl-benzenesulfonyl)-piperazine-2-carboxylic acid 4-cyclopentyl-benzylamide], the IC50 in test [1] (setting [3]) and in test [2] (setting [4]) was 100 to 1000 nM each time.

Take `CC(=O)N1CCN(S(=O)(=O)c2ccc(OC(F)(F)F)cc2)[C@@H](C(=O)NCCCc2cccc(O)c2)C1` [Example 716, (R)-4-acetyl-1-(4-trifluoromethoxy-benzenesulfonyl)-piperazine-2-carboxylic acid [3-(3-hydroxy-phenyl)-propyl]-amide]: the IC50 in test [1] (setting [5]) and in test [2] (setting [6]) was more than 1000 nM throughout.

Take `COC(=O)c1cnc(N2CCN(S(=O)(=O)c3ccc(C(F)(F)F)cc3)[C@@H](C(=O)NCc3ccc(C(C)C)cc3)C2)s1` [Example 302, 2-[(R)-3-(4-isopropyl-benzylcarbamoyl)-4-(4-trifluoromethyl-benzenesulfonyl)-piperazin-1-yl]-thiazole-5-carboxylic acid methyl ester]: the IC50 was less than 100 nM in test [1] (setting [3]) and 100 to 1000 nM in test [2] (setting [4]).

For `CC(=O)NCCC(=O)N1CCN(S(=O)(=O)c2ccc(C(F)(F)F)cc2)[C@@H](C(=O)NCc2ccc(C(C)C)cc2)C1` [Example 188, (R)-4-(3-acetylamino-propionyl)-1-(4-trifluoromethyl-benzenesulfonyl)-piperazine-2-carboxylic acid 4-isopropyl-benzylamide], the IC50 in test [1] (setting [3]) and in test [2] (setting [4]) was 100 to 1000 nM in each case.

As to `O=C(NCc1ccc(OC(F)(F)F)cc1)[C@H]1CN(C(=O)Cc2ccncc2)CCN1S(=O)(=O)c1ccc(OC(F)(F)F)cc1` [Example 409, (R)-4-(2-pyridin-4-yl-acetyl)-1-(4-trifluoromethoxy-benzenesulfonyl)-piperazine-2-carboxylic acid 4-trifluoromethoxy-benzylamide], the IC50 in test [1] (setting [3]) and in test [2] (setting [4]) was 100 to 1000 nM throughout.

Turning to `CC(=O)N1CCN(S(=O)(=O)c2ccc(C(C)C)cc2)C(C(=O)NCc2ccc(C(C)(C)C)cc2)C1` (centres unmarked) [Example 68, 4-acetyl-1-(4-isopropyl-benzenesulfonyl)-piperazine-2-carboxylic acid 4-tert-butyl-benzylamide], the IC50 in test [1] (setting [3]) and in test [2] (setting [4]) was 100 to 1000 nM each time.

Consider `O=C(O)c1cnc(N2CCN(S(=O)(=O)c3ccc(C(F)(F)F)cc3)[C@@H](C(=O)NCc3ccc(OC(F)F)c(F)c3)C2)cn1` [Example 1122], for which the 50% inhibitory concentration (IC50) in test [1] (setting [5]) and in test [2] (setting [6]) was less than 100 nM in each case.

Turning to `Cc1nc(N2CCN(S(=O)(=O)c3ccc(C(F)(F)F)cc3)[C@@H](C(=O)NCc3ccc(N(C)C)cc3)C2)sc1C(=O)O` [Example 343, 2-[(R)-3-(4-dimethylamino-benzylcarbamoyl)-4-(4-trifluoromethyl-benzenesulfonyl)-piperazin-1-yl]-4-methyl-thiazole-5-carboxylic acid], the IC50 in test [1] (setting [3]) and in test [2] (setting [4]) was less than 100 nM each time.

Turning to `CC(C)c1ccc(CNC(=O)[C@H]2CN(C(=O)CN)CCN2S(=O)(=O)c2ccc(C(F)(F)F)cc2)cc1` [Example 225, (R)-4-(2-amino-acetyl)-1-(4-trifluoromethyl-benzenesulfonyl)-piperazine-2-carboxylic acid 4-isopropyl-benzylamide hydrochloride], the IC50 in test [1] (setting [3]) and in test [2] (setting [4]) was 100 to 1000 nM throughout.

`CN(C)c1ccc(CNC(=O)[C@H]2CN(C(=O)CN)CCN2S(=O)(=O)c2ccc(I)cc2)cc1` [Example 157, (R)-4-(2-amino-acetyl)-1-(4-iodo-benzenesulfonyl)-piperazine-2-carboxylic acid 4-dimethylamino-benzylamide hydrochloride]: the IC50 in test [1] (setting [3]) and in test [2] (setting [4]) was more than 1000 nM throughout.

As for `CCCN(CCC)CCC(=O)N1CCN(S(=O)(=O)c2ccc(I)cc2)C(C(=O)NCc2ccc(N(C)C)cc2)C1` (centres unmarked) [Example 114, 4-(3-dipropylamino-propionyl)-1-(4-iodo-benzenesulfonyl)-piperazine-2-carboxylic acid 4-dimethylamino-benzylamide], the IC50 in test [1] (setting [3]) and in test [2] (setting [4]) was more than 1000 nM each time.

As usually defined, the IC50 is the concentration that gives 50% inhibition. A high value points to weaker potency in that assay.

The values are drawn from patent US8017612B2, “Piperazine compound and use thereof as a HCV polymerase inhibitor” (priority 2006, dated 2011).
